This passage reports EC50 results from patent US10058550B2, “Methods of treating heart failure” (priority 2015, dated 2018).

This test concerns the target human APJ receptor (Homo sapiens (Human), UniProt P35414). The test can be described thus: biochemical. Type of test: biochemical. The following applies: read-out: Activity hAPJ SPA EC50 IP. The method in brief: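 Agonist-stimulated [35S]GTPγS (0.2 nM) binding was read by SPA after 90 min at room temperature. Buffer: 20 mM HEPES pH 7.5 with 5 mM MgCl2, 200 mM NaCl, 3 μM GDP, 0.1% BSA; membranes were from a stable human APJ CHO line. EC50 values are averages of independent runs, fitted by non-linear regression.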

The structures appear in SMILES notation. pEC50: −log10 of the molar value.

human APJ receptor, sequence (P35414 whole entry): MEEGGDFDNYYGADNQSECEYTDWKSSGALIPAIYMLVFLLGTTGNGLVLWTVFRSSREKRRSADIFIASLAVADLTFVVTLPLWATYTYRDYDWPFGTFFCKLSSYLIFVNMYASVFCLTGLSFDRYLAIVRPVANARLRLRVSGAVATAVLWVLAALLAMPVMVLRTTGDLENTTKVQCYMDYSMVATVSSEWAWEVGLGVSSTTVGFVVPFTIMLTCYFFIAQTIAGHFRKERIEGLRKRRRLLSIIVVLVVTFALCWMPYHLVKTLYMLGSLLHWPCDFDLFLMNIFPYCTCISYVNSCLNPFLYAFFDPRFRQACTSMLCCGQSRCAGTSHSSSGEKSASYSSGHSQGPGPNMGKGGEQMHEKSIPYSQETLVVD

A word on the pEC50: it is −log10 of the EC50, conventionally taken in molar units. Turning to `CCc1cccc(-c2nnc(NS(=O)(=O)[C@@H](C)[C@H](C)c3ncc(C)cn3)n2-c2c(OC)cccc2OC)n1` [Example 176.0, (2S,3R)-N-(4-(2,6-dimethoxyphenyl)-5-(6-ethylpyridin-2-yl)-4H-1,2,4-triazol-3-yl)-3-(5-methylpyrimidin-2-yl)butane-2-sulfonamide], the pEC50 is 9.82.

In the case of `COc1cc(C)cc(-c2nnc(NS(=O)(=O)[C@@H](C)[C@H](C)c3ncc(F)cn3)n2-c2c(OC)cccc2OC)n1` [Example 177.0, (2S,3R)-N-(4-(2,6-dimethoxyphenyl)-5-(6-methoxy-4-methylpyridin-2-yl)-4H-1,2,4-triazol-3-yl)-3-(5-fluoropyrimidin-2-yl)butane-2-sulfonamide], the pEC50 was 9.92.

As for `COc1cc(C)cc(-c2nnc(NS(=O)(=O)[C@@H](C)[C@H](C)c3ncc(C)cn3)n2-c2c(OC)cccc2OC)n1` [Example 178.0, (2S,3R)-N-(4-(2,6-dimethoxyphenyl)-5-(6-methoxy-4-methylpyridin-2-yl)-4H-1,2,4-triazol-3-yl)-3-(5-methylpyrimidin-2-yl)butane-2-sulfonamide], the pEC50 is 9.92.

Consider `COc1cc(C)cc(-c2nnc(NS(=O)(=O)[C@@H](C)[C@H](OC)c3ncc(C)cn3)n2-c2c(OC)cccc2OC)n1` [Example 179.0, (1R,2S)-N-(4-(2,6-dimethoxyphenyl)-5-(6-methoxy-4-methylpyridin-2-yl)-4H-1,2,4-triazol-3-yl)-1-methoxy-1-(5-methylpyrimidin-2-yl)propane-2-sulfonamide], for which the pEC50 is 8.32.

As for `CCOc1cccc(-c2nnc(NS(=O)(=O)[C@@H](C)[C@H](C)c3ncc(C)cn3)n2-c2c(OC)cccc2OC)n1` [Example 180.0, (2S,3R)-N-(4-(2,6-dimethoxyphenyl)-5-(6-ethoxypyridin-2-yl)-4H-1,2,4-triazol-3-yl)-3-(5-methylpyrimidin-2-yl)butane-2-sulfonamide], the pEC50 is 10.17.

Turning to `COc1cccc(OC)c1-n1c(NS(=O)(=O)CCc2ccc(F)cc2C#N)nnc1-c1cncc(Cl)c1` [Example 181.0, N-(5-(5-chloro-3-pyridinyl)-4-(2,6-dimethoxyphenyl)-4H-1,2,4-triazol-3-yl)-2-(2-cyano-4-fluorophenyl)ethanesulfonamide], the pEC50 was 7.92.

Turning to `COc1cccc(OC)c1-n1c(NS(=O)(=O)[C@@H](C)[C@H](C)c2ncc(F)cn2)nnc1-c1cccc(OCC(F)(F)F)n1` [Example 185.0, (2S,3R)-N-(4-(2,6-dimethoxyphenyl)-5-(6-(2,2,2-trifluoroethoxy)pyridin-2-yl)-4H-1,2,4-triazol-3-yl)-3-(5-fluoropyrimidin-2-yl)butane-2-sulfonamide], the pEC50 was 9.92.

Regarding `COc1cccc(OC)c1-n1c(NS(=O)(=O)[C@@H](C)[C@H](C)c2ncc(F)cn2)nnc1-c1cccc(OCCO)n1` [Example 186.0, (2S,3R)-N-(4-(2,6-dimethoxyphenyl)-5-(6-(2-hydroxyethoxy)pyridin-2-yl)-4H-1,2,4-triazol-3-yl)-3-(5-fluoropyrimidin-2-yl)butane-2-sulfonamide], the pEC50 is 9.92.

Turning to `COc1cccc(OC)c1-n1c(NS(=O)(=O)[C@@H](C)[C@H](OC)c2ncc(C)cn2)nnc1-c1cccc(OCC(F)(F)F)n1` [Example 187.0, (1R,2S)-N-(4-(2,6-dimethoxyphenyl)-5-(6-(2,2,2-trifluoroethoxy)pyridin-2-yl)-4H-1,2,4-triazol-3-yl)-1-methoxy-1-(5-methylpyrimidin-2-yl)propane-2-sulfonamide], the pEC50 is 9.85.

Regarding `COc1cccc(OC)c1-n1c(NS(=O)(=O)[C@@H](C)[C@H](OC)c2ncc(C)cn2)nnc1-c1cccc(OCCO)n1` [Example 188.0, (1R,2S)-N-(4-(2,6-dimethoxyphenyl)-5-(6-(2-hydroxyethoxy)pyridin-2-yl)-4H-1,2,4-triazol-3-yl)-1-methoxy-1-(5-methylpyrimidin-2-yl)propane-2-sulfonamide], the pEC50 was 9.02.

Take `COc1cccc(OC)c1-n1c(NS(=O)(=O)[C@@H](C)[C@H](C)c2ncc(F)cn2)nnc1-c1cccc(OCC(C)(C)O)n1` [Example 192.0, (2S,3R)-N-(4-(2,6-dimethoxyphenyl)-5-(6-(2-hydroxy-2-methylpropoxy)pyridin-2-yl)-4H-1,2,4-triazol-3-yl)-3-(5-fluoropyrimidin-2-yl)butane-2-sulfonamide]: the negative logarithm of the EC50 (pEC50) is 6.59.

In the case of `COc1cccc(OC)c1-n1c(NS(=O)(=O)[C@@H](C)[C@H](OC)c2ncc(C)cn2)nnc1-c1cccc(OCC(C)(C)O)n1` [Example 193.0, (1R,2S)-N-(4-(2,6-dimethoxyphenyl)-5-(6-(2-hydroxy-2-methylpropoxy)pyridin-2-yl)-4H-1,2,4-triazol-3-yl)-1-methoxy-1-(5-methylpyrimidin-2-yl)propane-2-sulfonamide], the pEC50 is 7.21.

Consider `COc1cccc(OC)c1-n1c(NS(=O)(=O)[C@@H](C)[C@H](C)c2ncc(F)cn2)nnc1-c1cccc(OCC(O)(C(F)(F)F)C(F)(F)F)n1` [Example 194.0, (2S,3R)-N-(4-(2,6-dimethoxyphenyl)-5-(6-(3,3,3-trifluoro-2-hydroxy-2-(trifluoromethyl)propoxy)pyridin-2-yl)-4H-1,2,4-triazol-3-yl)-3-(5-fluoropyrimidin-2-yl)butane-2-sulfonamide], for which the pEC50 was 7.44.

With `CNc1cccc(-c2nnc(NS(=O)(=O)[C@@H](C)[C@H](OC)c3ncc(C)cn3)n2-c2c(OC)cccc2OC)n1` [Example 195.0, (1R,2S)-N-(4-(2,6-dimethoxyphenyl)-5-(6-(methylamino)pyridin-2-yl)-4H-1,2,4-triazol-3-yl)-1-methoxy-1-(5-methylpyrimidin-2-yl)propane-2-sulfonamide], the negative logarithm of the EC50 (pEC50) is 9.46.

Turning to `COCCOc1cccc(-c2nnc(NS(=O)(=O)[C@@H](C)[C@H](OC)c3ncc(C)cn3)n2-c2c(OC)cccc2OC)n1` [Example 196.0, (1R,2S)-N-(4-(2,6-dimethoxyphenyl)-5-(6-(2-methoxyethoxy)pyridin-2-yl)-4H-1,2,4-triazol-3-yl)-1-methoxy-1-(5-methylpyrimidin-2-yl)propane-2-sulfonamide], the negative logarithm of the EC50 (pEC50) is 8.47.

`COc1cccc(OC)c1-n1c(NS(=O)(=O)[C@@H](C)[C@H](OC)c2ncc(C)cn2)nnc1-c1cccc(N(C)C)n1` [Example 197.0, (1R,2S)-N-(4-(2,6-dimethoxyphenyl)-5-(6-(dimethylamino)pyridin-2-yl)-4H-1,2,4-triazol-3-yl)-1-methoxy-1-(5-methylpyrimidin-2-yl)propane-2-sulfonamide]: the pEC50 was 9.68.

`COc1cccc(OC)c1-n1c(NS(=O)(=O)[C@@H](C)[C@H](C)c2cnc(C)cn2)nnc1-c1cccnc1` [Example 198.0, (2S,3R)-N-(4-(2,6-dimethoxyphenyl)-5-(pyridin-3-yl)-4H-1,2,4-triazol-3-yl)-3-(5-methylpyrazin-2-yl)butane-2-sulfonamide]: the pEC50 was 8.96.

With `COc1cccc(-c2nnc(NS(=O)(=O)CCc3ccc(F)cc3C#N)n2-c2c(OC)cccc2OC)n1` [Example 200.0, 2-(2-cyano-4-fluorophenyl)-N-(4-(2,6-dimethoxyphenyl)-5-(6-methoxy-2-pyridinyl)-4H-1,2,4-triazol-3-yl)ethanesulfonamide], the pEC50 was 9.24.
